Experimental data: ChEMBL document CHEMBL1201862, “PubChem BioAssay data set” (2004)
Activity calls are given as the source filed them.

Tests used:
Vero [1] = assay: mammalian cell viability reduction – secondary assay, cytotoxicity control for West Nile virus antiviral project, dose response (AID 1650); type: functional; settings: Chlorocebus sabaeus
Vero [2] = assay: inhibition of WNV-induced cytopathic effect – cell-based, CPE readout (AID 1621); type: functional; settings: Chlorocebus sabaeus
[3] = biological target: Solute carrier family 12 member 2/member 5 (Homo sapiens, UniProt P55011+Q9H2X9); assay: KCC2 and NKCC1 inhibition by rubidium flux, cell-based, NKCC1 counter-screen (AID 1734); type: functional, HEK293
[4] = biological target: Peroxisome proliferator-activated receptor gamma/Nuclear receptor coactivator 2 (Homo sapiens, UniProt P37231); type: functional;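 also: agonist potency for raising coactivator recruitment to the receptor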
Genome polyprotein = Genome polyprotein (Hepatitis C virus, UniProt Q2Q167); assay: disruption of hepatitis C core self-association – biochemical, TR-FRET, dose response (AID 2159); set-up: species or system Hepacivirus hominis;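 also: blocks dimerization of HCV core protein measured by TR-FRET between tagged core106 pairs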
[5] = biological target: Peroxisome proliferator-activated receptor gamma/Nuclear receptor coactivator 1 (Homo sapiens, UniProt P37231); type: functional;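 also: agonist potency as compounds enhance coactivator SRC-1 recruitment to PPARgamma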
[6] = biological target: Peroxisome proliferator-activated receptor gamma/Nuclear receptor coactivator 3 (Homo sapiens, UniProt P37231); type: functional;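 also: agonist potency for raising coactivator recruitment to the receptor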
[7] = Trypanosoma cruzi growth suppression in host cells – NIH3T3 host cells, beta-gal luminescence, confirmation (AID 2044); type: functional, cell-based;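 also: intracellular parasites grown in NIH/3T3 mouse fibroblasts as host cells; luminescent beta-galactosidase reporter signal from transgenic T. cruzi replicating inside host cells; inhibitors lower the luminescence signal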
NADPH oxidase 1 [8] = biological target: T1, NADPH oxidase 1 (Homo sapiens, UniProt Q9Y5S8); type: functional, cell-based
NADPH oxidase 1 [9] = biological target: T1, NADPH oxidase 1; assay: Luminescence-based cell-based dose response assay to identify inhibitors of NADPH oxidase 1 (NOX1).; type: functional
[10] = NIH3T3 cell viability loss – ATP luminescence, mouse fibroblasts, counter-screen, dose response (AID 2010); type: functional, cell-based;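 also: cells exposed to compound for about 90 hours before reading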
[11] = biological target: T2, Rac GTPase-activating protein 1 (Homo sapiens, UniProt Q9H0H5); assay: blockers of MgcRacGAP-driven Rac1 GTP hydrolysis – biochemical, ADP Hunter fluorescence, primary and confirmatory, confirmation (AID 624330); type: functional
T2 sequence (Q9H0H5 whole entry): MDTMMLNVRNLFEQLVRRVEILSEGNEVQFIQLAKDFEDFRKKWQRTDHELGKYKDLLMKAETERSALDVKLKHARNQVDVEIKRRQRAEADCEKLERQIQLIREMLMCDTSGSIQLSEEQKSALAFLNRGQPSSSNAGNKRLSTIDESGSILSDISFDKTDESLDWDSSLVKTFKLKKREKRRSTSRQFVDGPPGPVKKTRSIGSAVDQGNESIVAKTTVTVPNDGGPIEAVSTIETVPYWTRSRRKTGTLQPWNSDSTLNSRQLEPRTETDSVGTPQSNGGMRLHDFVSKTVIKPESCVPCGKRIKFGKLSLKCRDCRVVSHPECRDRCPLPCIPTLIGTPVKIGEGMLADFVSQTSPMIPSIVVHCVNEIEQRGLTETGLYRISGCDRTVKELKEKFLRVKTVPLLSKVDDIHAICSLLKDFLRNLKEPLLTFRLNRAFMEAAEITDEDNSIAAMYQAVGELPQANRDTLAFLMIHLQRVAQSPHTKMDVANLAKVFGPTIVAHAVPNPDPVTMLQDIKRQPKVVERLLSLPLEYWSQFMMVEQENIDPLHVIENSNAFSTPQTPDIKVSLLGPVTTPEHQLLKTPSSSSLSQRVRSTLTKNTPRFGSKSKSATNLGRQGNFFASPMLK

[12] = biological target: Neuropeptide Y receptor type 1 (Homo sapiens, UniProt P25929); type: functional;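 also: HEK293 cells with a CNG channel challenged with NPY then isoproterenol; potency as antagonist that reverses NPY suppression of cAMP signal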
[13] = biological target: Neuropeptide Y receptor type 2 (Homo sapiens, UniProt P49146); type: functional, cell-based;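 also: HEK293 cells expressing the receptor and a CNG channel; stimulus was NPY near EC95 followed by isoproterenol to raise cAMP; antagonist potency measured as restoring cAMP signal that NPY suppresses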
SUMO-activating enzyme = SUMO-activating enzyme (Homo sapiens, UniProt Q9UBT2); assay: blockers of UBC9-mediated SUMO conjugation – biochemical, AlphaScreen, SUMOylation inhibitor project, confirmation (AID 2018); type: functional
[14] = biological target: ATP-sensitive inward rectifier potassium channel 1 (Homo sapiens, UniProt P48048); assay: Kir1.1 channel inhibitor analog potency – cell-based, thallium flux, analog library, SAR follow-up (AID 435017); type: functional
[15] = biological target: 5-hydroxytryptamine receptor 1E (Homo sapiens, UniProt P28566); assay: Counterscreen assay for S1P3 antagonists: Dose response cell-based high throughput screening assay to identify antagonists of the 5-Hydroxytryptamine Receptor Subtype 1E (5HT1E). [Related pubchem assays: 1429, 485 ]; type: functional
[16] = biological target: Sphingosine 1-phosphate receptor 3 (Homo sapiens, UniProt Q99500); assay: Dose response cell-based high throughput screening assay for antagonists of the Sphingosine 1-Phosphate Receptor 3 (S1P3). [Related pubchem assays: 1429, 485 ]; type: functional
[17] = biological target: Disintegrin and metalloproteinase domain-containing protein 17 (Homo sapiens, UniProt P78536); assay: exosite inhibitors of ADAM17, dose response, biochemical (AID 743260)
[18] = inhibition of ADAM10 peptide cleavage – biochemical, FRET peptide substrate, recombinant human ADAM10, selectivity assay for ADAM17 exosite inhibitor project, dose response (AID 743259);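 also: ADAM10 enzyme cleaving a FRET peptide substrate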
[19] = biological target: Luciferin 4-monooxygenase (Photinus pyralis, UniProt P08659); assay: Counter Screen for Luciferase-based Assay Positives. [Related pubchem assays: 620, 618, 411 ]
HT-1080 = assay: HT1080 cell viability loss – fluorescence readout (AID 620); type: functional, cell-based; settings: Homo sapiens
Cytochrome P450 2D6 = Cytochrome P450 2D6 (Homo sapiens, UniProt P10635);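 also: CYP2D6 member of a cytochrome P450 panel assay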
Cytochrome P450 2C9 = Cytochrome P450 2C9 (Homo sapiens, UniProt P11712)
[20] = NIH-3T3 fibroblast cytotoxicity, dose response, cytotoxicity control, cell-based, fluorescence, Alamar Blue, secondary assay (AID 2327); type: functional;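 also: NIH-3T3 mouse fibroblasts cultured with fluconazole at 8 µg/mL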
cells [21] = type: functional, cell-based
[22] = fluconazole-exposed Candida albicans growth modulators – fluorescence, retest, confirmation (AID 2467); type: functional, cell-based
cells [23] = type: functional, cell-based; remark: listed apart in the source
[24] = biological target: Voltage-gated inwardly rectifying potassium channel KCNH2 (Homo sapiens, UniProt Q12809); assay: concentration-dependent hERG rescue from blockers – cell-based, thallium flux, dose response (AID 2121); type: ADME
[25] = biological target: Aryl hydrocarbon receptor (Homo sapiens, UniProt P35869); assay: Luminescence-based cell-based high throughput dose response assay for activators of the Aryl Hydrocarbon Receptor (AHR). [Related pubchem assays: 2796 (Primary screen (AHR activators in singlicate)), 2845 (Confirmation screen (AHR activators in triplicate)), 434939 (Counterscreen (PXR activators in triplicate)), 2804 (Summary (AHR activators))]; type: ADME
Mucolipin-3 = Mucolipin-3 (Homo sapiens, UniProt Q8TDD5); assay: Dose response cell-based high-throughput screening assay for agonists of the transient receptor potential channel ML3 (TRPML3). [Related pubchem assays: 1526, 1424, 1448 ]; type: functional
Ion channel NompC = Ion channel NompC (Danio rerio, UniProt Q7T1G6); assay: Fluorescence counterscreen assay for TRPML3 agonists: dose response cell-based high-throughput screening assay to identify agonists of the transient receptor potential channel N1 (TRPN1). [Related pubchem assays: 1526, 1424, 1448 ]; type: functional
[26] = biological target: T3, Long-chain-fatty-acid--AMP ligase FadD28 (Mycobacterium tuberculosis, UniProt P9WQ59); assay: Fluorescence polarization aasay to screen for inhibitors that compete for the binding of FadD28 to a bisubstrate Measured in Biochemical System Using Plate Reader - 2147-01_Inhibitor_Dose_CherryPick_Activity.; type: functional, Mycobacterium tuberculosis H37Rv
T3 sequence (P9WQ59 whole entry): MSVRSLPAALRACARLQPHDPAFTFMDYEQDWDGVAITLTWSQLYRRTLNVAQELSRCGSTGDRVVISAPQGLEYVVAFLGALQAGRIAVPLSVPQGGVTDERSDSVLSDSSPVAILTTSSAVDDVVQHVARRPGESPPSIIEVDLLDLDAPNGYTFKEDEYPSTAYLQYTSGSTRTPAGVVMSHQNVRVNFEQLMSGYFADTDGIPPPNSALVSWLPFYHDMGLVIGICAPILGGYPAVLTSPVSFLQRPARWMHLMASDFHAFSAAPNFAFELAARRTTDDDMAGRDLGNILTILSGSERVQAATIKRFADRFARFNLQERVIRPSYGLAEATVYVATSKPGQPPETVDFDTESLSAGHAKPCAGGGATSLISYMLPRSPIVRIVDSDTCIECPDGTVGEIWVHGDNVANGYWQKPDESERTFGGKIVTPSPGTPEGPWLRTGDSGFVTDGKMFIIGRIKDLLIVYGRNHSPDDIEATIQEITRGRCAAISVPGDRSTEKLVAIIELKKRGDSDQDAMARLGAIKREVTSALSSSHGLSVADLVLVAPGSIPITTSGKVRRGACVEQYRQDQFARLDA

[27] = biological target: Potassium voltage-gated channel subfamily KQT member 2 (Rattus norvegicus, UniProt O88943); assay: Mode of action assay - current amplitude concentration response for derivatives of ZTZ240, a potentiator of KCNQ2 potassium channels. [Related pubchem assays: 2258 (Summary assay for the KCNQ2 potentiators.), 2239 (Primary HTS assay for KCNQ2 potentiators with 305606 compounds tested, and 1644 are found to be active.)]; type: functional
[28] = viability of uninfected HEp-2 cells – cell-based, HTS, cytotoxicity control for RSV inhibitor project, dose response (AID 2410); type: functional; settings: human respiratory syncytial virus
[29] = biological target: T4, Mannose-6-phosphate isomerase (Homo sapiens, UniProt P34949); assay: MPI enzyme activity inhibition – biochemical, fluorescence intensity, coupled assay, primary screen (AID 1209)
T4 sequence (P34949 whole entry): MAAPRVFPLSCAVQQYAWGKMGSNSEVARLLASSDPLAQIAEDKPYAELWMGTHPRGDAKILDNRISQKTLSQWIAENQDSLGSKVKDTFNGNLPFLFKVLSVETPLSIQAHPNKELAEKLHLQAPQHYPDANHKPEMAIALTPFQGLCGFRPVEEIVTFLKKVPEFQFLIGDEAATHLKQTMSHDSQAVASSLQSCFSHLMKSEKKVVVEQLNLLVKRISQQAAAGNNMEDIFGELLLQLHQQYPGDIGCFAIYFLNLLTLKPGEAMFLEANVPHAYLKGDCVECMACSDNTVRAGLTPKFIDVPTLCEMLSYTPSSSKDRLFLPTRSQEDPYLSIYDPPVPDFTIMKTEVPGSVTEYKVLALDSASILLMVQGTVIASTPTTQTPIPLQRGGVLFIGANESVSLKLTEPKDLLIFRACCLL

[30] = Luminescence-based dose response cell-based high throughput screening assay for cytotoxic compounds using the IEC-6 intestinal epithelial cell line. [Related pubchem assays: 1858 (Summary AID.), 1825 (Counterscreen.), 1907 (Confirmation screen.)]; type: functional
[31] = biological target: T4, Mannose-6-phosphate isomerase; assay: MPI inhibition at elevated mannose 6-phosphate – biochemical, fluorescence intensity, high mannose 6-phosphate, primary screen (AID 1220)
[32] = biological target: Photoreceptor-specific nuclear receptor (Homo sapiens, UniProt Q9Y5X4); type: functional, cell-based;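 also: CHO-S cells with Gal4-NCOR and VP16-NR2E3 two-hybrid luciferase reporter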
cells [33] = assay: cells
[34] = lung carcinoma cell viability loss – CellTiter-Glo luminescence, dry powder, set 17, dose response (AID 1117284); type: functional, cell-based; settings: A549

T1 sequence (Q9Y5S8 whole entry): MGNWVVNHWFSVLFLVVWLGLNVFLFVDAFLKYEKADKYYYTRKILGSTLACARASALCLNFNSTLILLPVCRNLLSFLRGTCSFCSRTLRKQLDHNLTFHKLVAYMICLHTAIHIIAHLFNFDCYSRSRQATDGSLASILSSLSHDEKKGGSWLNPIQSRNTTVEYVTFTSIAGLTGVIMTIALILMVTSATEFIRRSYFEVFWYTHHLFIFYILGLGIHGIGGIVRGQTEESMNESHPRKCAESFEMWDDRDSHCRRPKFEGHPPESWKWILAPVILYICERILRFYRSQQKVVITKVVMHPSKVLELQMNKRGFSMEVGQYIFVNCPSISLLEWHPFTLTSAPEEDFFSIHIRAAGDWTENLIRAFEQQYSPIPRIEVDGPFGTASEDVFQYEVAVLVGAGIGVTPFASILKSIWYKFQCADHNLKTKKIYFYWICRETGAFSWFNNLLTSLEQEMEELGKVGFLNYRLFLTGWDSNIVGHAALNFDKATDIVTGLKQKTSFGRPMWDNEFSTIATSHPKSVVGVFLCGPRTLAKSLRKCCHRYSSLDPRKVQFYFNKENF
Potassium voltage-gated channel subfamily KQT member 2, sequence (O88943 whole entry): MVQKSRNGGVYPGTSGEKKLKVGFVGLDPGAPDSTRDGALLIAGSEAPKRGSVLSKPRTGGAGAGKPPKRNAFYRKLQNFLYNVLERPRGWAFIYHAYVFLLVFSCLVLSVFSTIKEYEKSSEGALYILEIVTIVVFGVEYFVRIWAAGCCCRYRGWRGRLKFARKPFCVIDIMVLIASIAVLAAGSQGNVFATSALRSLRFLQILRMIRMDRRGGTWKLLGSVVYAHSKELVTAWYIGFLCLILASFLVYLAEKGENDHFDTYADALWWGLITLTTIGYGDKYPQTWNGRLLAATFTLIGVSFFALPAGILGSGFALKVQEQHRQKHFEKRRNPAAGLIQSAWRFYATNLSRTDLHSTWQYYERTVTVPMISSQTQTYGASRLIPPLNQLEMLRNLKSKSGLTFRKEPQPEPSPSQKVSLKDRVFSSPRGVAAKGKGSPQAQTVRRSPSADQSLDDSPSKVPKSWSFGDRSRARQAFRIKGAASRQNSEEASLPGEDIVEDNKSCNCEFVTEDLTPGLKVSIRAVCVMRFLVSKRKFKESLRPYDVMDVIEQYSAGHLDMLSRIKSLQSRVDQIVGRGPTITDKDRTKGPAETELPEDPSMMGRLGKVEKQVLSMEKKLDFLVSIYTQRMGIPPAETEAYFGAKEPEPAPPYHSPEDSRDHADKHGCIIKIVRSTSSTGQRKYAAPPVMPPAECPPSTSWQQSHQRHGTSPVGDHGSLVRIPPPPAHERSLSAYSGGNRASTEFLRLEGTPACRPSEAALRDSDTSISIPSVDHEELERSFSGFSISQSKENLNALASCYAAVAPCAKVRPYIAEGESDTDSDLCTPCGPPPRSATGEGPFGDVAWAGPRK
Genome polyprotein, sequence (Q2Q167 whole entry): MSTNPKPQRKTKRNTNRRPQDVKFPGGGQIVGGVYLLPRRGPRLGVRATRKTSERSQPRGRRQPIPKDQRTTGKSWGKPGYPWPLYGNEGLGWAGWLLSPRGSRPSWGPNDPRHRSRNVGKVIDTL
Cytochrome P450 2C9, sequence (P11712 whole entry): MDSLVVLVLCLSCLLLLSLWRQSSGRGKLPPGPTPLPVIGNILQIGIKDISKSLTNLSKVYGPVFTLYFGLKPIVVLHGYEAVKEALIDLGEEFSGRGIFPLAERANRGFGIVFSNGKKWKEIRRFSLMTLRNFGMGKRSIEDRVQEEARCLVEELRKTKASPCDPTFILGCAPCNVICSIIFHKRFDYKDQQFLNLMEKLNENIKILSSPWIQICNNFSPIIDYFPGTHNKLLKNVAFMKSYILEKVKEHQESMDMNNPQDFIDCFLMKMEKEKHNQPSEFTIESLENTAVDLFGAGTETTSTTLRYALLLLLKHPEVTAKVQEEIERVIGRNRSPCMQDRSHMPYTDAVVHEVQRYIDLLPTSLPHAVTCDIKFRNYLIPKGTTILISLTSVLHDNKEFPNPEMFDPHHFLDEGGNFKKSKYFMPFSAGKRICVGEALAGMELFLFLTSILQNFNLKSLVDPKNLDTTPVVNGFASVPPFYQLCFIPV
Disintegrin and metalloproteinase domain-containing protein 17, sequence (P78536 whole entry, the tested form may be a part): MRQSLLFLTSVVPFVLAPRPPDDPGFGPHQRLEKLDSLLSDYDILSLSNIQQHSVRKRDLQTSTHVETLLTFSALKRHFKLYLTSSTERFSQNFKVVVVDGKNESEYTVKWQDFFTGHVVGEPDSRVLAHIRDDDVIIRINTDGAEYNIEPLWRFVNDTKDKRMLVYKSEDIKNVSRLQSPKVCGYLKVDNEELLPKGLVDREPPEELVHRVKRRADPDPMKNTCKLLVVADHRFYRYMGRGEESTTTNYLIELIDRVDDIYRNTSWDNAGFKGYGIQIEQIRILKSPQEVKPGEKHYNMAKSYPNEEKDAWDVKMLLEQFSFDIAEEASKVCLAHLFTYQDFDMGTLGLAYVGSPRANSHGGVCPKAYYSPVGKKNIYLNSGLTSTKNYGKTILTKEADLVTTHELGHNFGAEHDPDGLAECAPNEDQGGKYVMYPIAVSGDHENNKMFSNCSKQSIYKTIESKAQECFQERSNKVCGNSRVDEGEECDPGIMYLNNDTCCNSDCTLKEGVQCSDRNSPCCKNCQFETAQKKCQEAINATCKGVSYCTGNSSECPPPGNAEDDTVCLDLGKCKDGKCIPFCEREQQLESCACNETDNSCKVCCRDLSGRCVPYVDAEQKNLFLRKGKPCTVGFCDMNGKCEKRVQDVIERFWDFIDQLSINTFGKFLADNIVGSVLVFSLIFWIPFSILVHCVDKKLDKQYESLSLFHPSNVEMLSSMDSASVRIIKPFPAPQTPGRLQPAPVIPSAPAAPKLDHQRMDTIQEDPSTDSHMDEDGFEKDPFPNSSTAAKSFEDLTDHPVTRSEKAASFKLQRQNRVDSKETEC
SUMO-activating enzyme, sequence (Q9UBE0 whole entry): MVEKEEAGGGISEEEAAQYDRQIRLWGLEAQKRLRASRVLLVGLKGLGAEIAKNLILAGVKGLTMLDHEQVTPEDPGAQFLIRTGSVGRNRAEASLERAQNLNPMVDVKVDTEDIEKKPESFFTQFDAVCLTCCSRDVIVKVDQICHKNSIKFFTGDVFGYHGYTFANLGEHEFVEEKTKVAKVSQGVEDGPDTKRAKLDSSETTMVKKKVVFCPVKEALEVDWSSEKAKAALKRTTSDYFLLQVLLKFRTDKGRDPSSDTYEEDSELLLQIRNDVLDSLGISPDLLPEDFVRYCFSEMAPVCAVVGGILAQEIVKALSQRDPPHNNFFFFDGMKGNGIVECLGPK
SUMO-activating enzyme, sequence (Q9UBT2 whole entry): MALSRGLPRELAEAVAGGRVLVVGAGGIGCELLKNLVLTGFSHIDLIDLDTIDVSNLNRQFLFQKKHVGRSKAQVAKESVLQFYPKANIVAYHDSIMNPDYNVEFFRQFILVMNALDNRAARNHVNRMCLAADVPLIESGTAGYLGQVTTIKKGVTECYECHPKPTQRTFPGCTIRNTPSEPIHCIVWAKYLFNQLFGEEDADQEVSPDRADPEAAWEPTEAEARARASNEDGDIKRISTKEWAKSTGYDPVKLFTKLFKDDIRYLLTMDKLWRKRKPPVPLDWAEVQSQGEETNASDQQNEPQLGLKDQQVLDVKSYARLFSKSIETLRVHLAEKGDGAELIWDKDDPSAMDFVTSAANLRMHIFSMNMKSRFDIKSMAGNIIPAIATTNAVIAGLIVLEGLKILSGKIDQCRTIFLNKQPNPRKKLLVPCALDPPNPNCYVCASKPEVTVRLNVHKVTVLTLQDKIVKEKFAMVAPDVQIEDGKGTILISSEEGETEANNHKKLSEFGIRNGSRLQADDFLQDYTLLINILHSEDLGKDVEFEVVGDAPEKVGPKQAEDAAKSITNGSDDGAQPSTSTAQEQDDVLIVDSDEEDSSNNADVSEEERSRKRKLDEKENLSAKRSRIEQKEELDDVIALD
Neuropeptide Y receptor type 1, sequence (P25929 whole entry): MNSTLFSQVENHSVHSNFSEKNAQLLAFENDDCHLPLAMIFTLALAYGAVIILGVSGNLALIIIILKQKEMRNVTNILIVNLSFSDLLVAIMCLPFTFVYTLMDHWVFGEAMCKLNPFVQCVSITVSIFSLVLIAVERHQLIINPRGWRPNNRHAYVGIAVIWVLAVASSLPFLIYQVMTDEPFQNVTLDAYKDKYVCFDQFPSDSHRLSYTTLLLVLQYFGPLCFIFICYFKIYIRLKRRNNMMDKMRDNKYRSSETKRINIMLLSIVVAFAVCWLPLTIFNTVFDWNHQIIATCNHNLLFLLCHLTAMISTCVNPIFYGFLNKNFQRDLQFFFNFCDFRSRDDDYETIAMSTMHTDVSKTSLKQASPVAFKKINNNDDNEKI
Sphingosine 1-phosphate receptor 3, sequence (Q99500 whole entry, the tested form may be a part): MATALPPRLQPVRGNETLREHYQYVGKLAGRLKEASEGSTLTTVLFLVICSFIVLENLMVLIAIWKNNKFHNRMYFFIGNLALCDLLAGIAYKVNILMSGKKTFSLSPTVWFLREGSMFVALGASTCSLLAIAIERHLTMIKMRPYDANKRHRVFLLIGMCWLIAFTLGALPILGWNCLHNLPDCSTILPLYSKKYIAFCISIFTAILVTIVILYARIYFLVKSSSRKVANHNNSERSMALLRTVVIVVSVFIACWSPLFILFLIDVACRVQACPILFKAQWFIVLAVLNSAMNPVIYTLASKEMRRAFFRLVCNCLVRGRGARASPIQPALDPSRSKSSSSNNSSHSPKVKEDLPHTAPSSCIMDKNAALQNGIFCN
5-hydroxytryptamine receptor 1E, sequence (P28566 whole entry): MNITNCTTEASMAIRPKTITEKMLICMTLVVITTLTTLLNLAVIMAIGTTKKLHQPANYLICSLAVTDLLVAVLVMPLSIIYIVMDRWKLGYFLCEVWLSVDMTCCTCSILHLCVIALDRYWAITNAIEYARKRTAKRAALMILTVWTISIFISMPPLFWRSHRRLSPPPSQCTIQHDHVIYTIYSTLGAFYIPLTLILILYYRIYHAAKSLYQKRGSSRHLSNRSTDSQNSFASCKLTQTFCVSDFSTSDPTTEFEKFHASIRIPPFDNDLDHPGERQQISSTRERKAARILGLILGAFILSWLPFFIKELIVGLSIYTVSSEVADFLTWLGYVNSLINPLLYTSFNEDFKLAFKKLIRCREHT

In the case of `CCC1CCCCN1CCCNC(=O)c1cc2c(Cl)nc3ccccc3c2s1` (stereo not drawn), the CC50 (Vero [1]) is reported as 12.7 µM (active) and the IC50 (Vero [2]) is reported as 8.75 µM (active).
For `O=C(Cn1cnc2c(nnn2Cc2ccccc2)c1=O)c1ccc(Cl)cc1`, the IC50 [3] was 1.2 µM (active).
With `Cc1cc(OCC(=O)Nc2cc(-c3nn4c(C)nnc4s3)ccc2C)ccc1Cl` the EC50 [4] was 10.1 µM (not active), the IC50 (Genome polyprotein) was > 49.8 µM (not active) and the EC50 [5] was 9.05 µM (active). For the same molecule, the EC50 [6] was 8.97 µM (active).
In the case of `CCOC(=O)Nc1ccc2c(c1)Nc1ccccc1S2`, the EC50 [7] is reported as < 0.1 µM (active), the IC50 (NADPH oxidase 1 [8]) is reported as 0.915 µM (active) and the IC50 (NADPH oxidase 1 [9]) is reported as 0.054 µM (active). The EC50 [10] was > 60 µM (not active) and the IC50 [11] was 45 µM (active).
In the case of `COc1cccc(-c2nc(-c3ccc(NC(=O)Cc4ccccc4OC)cc3)no2)c1`, the IC50 [12] is reported as > 35 µM (not active) and the IC50 [13] is reported as 0.733 µM (active).
For `O=[N+]([O-])c1ccc2[nH]c(CCCc3nc4cc([N+](=O)[O-])ccc4[nH]3)nc2c1`, the IC50 (SUMO-activating enzyme) was > 100 µM (inactive) and the IC50 [14] was 6.53 µM (active).
For `COc1ccc(C(CC(=O)c2ccc(C)cc2)Nc2ccc([N+](=O)[O-])cc2)cc1` (stereo not drawn), the IC50 [15] was > 50 µM (not active), the IC50 [16] was 2.05 µM (active) and the IC50 [17] was > 69.5 µM (inactive). For the same molecule, the IC50 [18] was 26.8 µM (inactive).
With `COc1ccc(-c2nsc3c(N4CCCCC4)ncnc23)cc1` the EC50 [19] was 4.6 µM (active), the EC50 (HT-1080) was > 50 µM (not active) and the AC50 (Cytochrome P450 2D6) was 15.8 µM (inconclusive). The AC50 (Cytochrome P450 2C9) was 5.01 µM (inconclusive).
With `COc1ccc(NC(=O)C(=O)NNC(=O)c2ccc(Cl)cc2Cl)cc1` the EC50 [20] was > 150 µM (inactive), the EC50 (cells [21]) was > 350 µM (not active) and the EC50 [22] was 2.28 µM (active). For the same molecule, the EC50 (cells [23]) was > 350 µM (not active) and the EC50 [24] was 0.5 µM (active).
With `COc1ccccc1NC(=O)Nc1cccnc1` the EC50 [25] was 2.25 µM (active).
With `CC1CCCC(C)N1C(=C(Cl)Cl)C(=C1SCCS1)[N+](=O)[O-]` (stereo not drawn) the EC50 (Mucolipin-3) was 6.91 µM (active), the EC50 (Ion channel NompC) was > 29.9 µM (not active) and the AC50 [26] was > 100 µM (inactive).
With `O=C(Nc1ccc(Br)nc1)c1ccc(F)c(F)c1` the EC50 [27] was 3.72 µM (active).
For `Cc1cccc(/C=N/Nc2cc(N3CCOCC3)nc(N3CCOCC3)n2)c1`, the CC50 [28] was 24.6 µM (active), the IC50 [29] was > 50 µM (not active) and the EC50 [7] was < 0.1 µM (active). For the same molecule, the IC50 [30] was 0.692 µM (active), the EC50 [10] was 1.6 µM (active) and the IC50 [31] was > 50 µM (not active). For the same molecule, the IC50 [32] was 1.88 µM (active) and the EC50 (cells [33]) was 0.077 µM (active).
With `C[C@H]1CN([C@@H](C)CO)S(=O)(=O)c2ccc(-c3ccc(O)cc3)cc2O[C@H]1CN(C)Cc1ccc(-c2ccccc2)cc1` the AC50 [34] was > 52 µM (inactive).
